The source of these data is patent US7511146B2, “2-substituted benzimidazole piperidines analogs as selective melanin concentrating hormone receptor antagonists for the treatment of obesity and related disorders” (Schering Corporation, priority 2003, dated 2009).

As usually defined, the Ki is the equilibrium dissociation constant of an inhibitor or competing ligand from its target.

T1 sequence (Q99705 whole entry): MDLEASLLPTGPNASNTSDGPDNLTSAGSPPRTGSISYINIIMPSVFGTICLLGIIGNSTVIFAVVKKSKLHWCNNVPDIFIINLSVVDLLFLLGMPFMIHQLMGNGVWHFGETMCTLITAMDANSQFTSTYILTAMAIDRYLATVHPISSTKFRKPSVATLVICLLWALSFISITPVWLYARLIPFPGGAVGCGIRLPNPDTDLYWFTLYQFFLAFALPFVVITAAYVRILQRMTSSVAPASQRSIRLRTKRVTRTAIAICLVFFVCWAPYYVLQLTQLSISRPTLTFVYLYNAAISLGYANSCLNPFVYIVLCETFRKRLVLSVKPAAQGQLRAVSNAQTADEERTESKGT

One test addresses T1, MCH receptor (Homo sapiens, UniProt Q99705).
T1 construct: expressed in transfected cells; host or cells: CHO cells
In words: MCH Receptor Binding Assay ([125I]-MCH, SPA, membranes from CHO cells expressing the MCH receptor). Conditions: [125I]-MCH displacement, CHO cell membranes; read-out: Class (Ki, MCH receptor binding). As to the method: MCH Receptor Binding Assay:
Membranes from CHO cells expressing the MCH receptor were prepared by lysing cells with 5 mM HEPES for 15 min at 4C. Cell lysates were centrifuged ([…], 15 min) and the pellet was resuspended in 5 mM HEPES. For each 96-well plate (Microlite, Dynex Technologies), 1 mg of cell membranes were incubated with 10 mg of wheat germ agglutinin SPA beads (Amersham) for 5 min at 4 C in a volume of 10 ml of binding buffer (25 mM HEPES, 10 mM MGCl2, 10 mM NaCl, 5 mM MnCl2, 0.1% BSA). The membrane/bead mixture was centrifuged (1500×g, 3.5 min), the supernatant was aspirated, and the pellet was resuspended in 10 ml binding buffer. The centrifugation, aspiration and resuspension were then repeated. The membrane/bead mixture (100 μl) was then added to 96-well plates containing 50 μl of 500 pM [^125I]-MCH (NEN) and […] of the appropriate concentration of compound (4× the desired final concentration). Nonspecific binding was determined by including 1 μM MCH in the binding reaction. The binding reaction was incubated at room temperature for 2 h. Plates were then analyzed in a TOPCOUNT microplate scintillation counter (Packard). Data was analyzed and Ki values were determined using GraphPad Prism.
Consider `N#Cc1cccc(-c2ccc(C3(CNc4nc5cc(F)c(F)cc5[nH]4)CCNCC3)cc2)c1` [Compound 8A], for which the inhibition constant Ki fell in the range of 20 to 50 nM.

As for `N#Cc1cccc(-c2ccc(C3(CNc4nc5cc(F)c(F)cc5[nH]4)CCN(CC4CC4)CC3)cc2)c1` [Compound 8B], the Ki fell in the range of 20 to 50 nM.

With `N#Cc1cccc(-c2ccc(C3(CNc4nc5cc(F)c(F)cc5[nH]4)CCN(C4CCC4)CC3)cc2)c1` [Compound 8C], the Ki fell in the range of 20 to 50 nM.

In the case of `COC(=O)N1CCC(CNc2nc3cc(F)c(F)cc3[nH]2)(c2ccc(-c3cccc(C#N)c3)cc2)CC1` [Compound 8D], the Ki is above 100 nM.

Regarding `N#Cc1cccc(-c2ccc(C3(CCc4nc5cc(F)c(F)cc5[nH]4)CCN(CC4CC4)CC3)cc2)c1` [Compound 11A], the inhibitory constant (Ki) was above 100 nM.

For `N#Cc1cccc(-c2ccc(C3(CCc4nc5cc(Cl)c(F)cc5[nH]4)CCNCC3)cc2)c1` [Compound 11B], the Ki was above 100 nM.

In the case of `N#Cc1cccc(-c2ccc(C3(CCc4nc5cc(Cl)c(F)cc5[nH]4)CCN(CC4CC4)CC3)cc2)c1` [Compound 11C], the Ki is above 100 nM.

Regarding `CC(C)(C)OC(=O)N1CCC(C(NCc2nc3cc(Cl)c(Cl)cc3[nH]2)c2ccc(-c3cccc(C#N)c3)cc2)CC1` (centres unmarked) [Compound 15A], the Ki is 50 to 100 nM.

`CC(C)(C)OC(=O)N1CCC(C(NCc2nc3cc(F)c(Cl)cc3[nH]2)c2ccc(-c3cccc(C#N)c3)cc2)CC1` (centres unmarked) [Compound 15B]: the inhibition constant Ki was in the range of 20 to 50 nM.

Turning to `N#Cc1cccc(-c2ccc(C(NCc3nc4cc(Cl)c(Cl)cc4[nH]3)C3CCNCC3)cc2)c1` (centres unmarked) [Compound 16A], the Ki is below 20 nM.

Take `N#Cc1cccc(-c2ccc(C(NCc3nc4cc(Cl)c(F)cc4[nH]3)C3CCNCC3)cc2)c1` (centres unmarked) [Compound 16B]: the Ki was 20 to 50 nM.

For `N#Cc1cccc(-c2ccc(C(NCc3nc4cc(Cl)c(F)cc4[nH]3)C3CCN(CC4CC4)CC3)cc2)c1` (centres unmarked) [Compound 17A], the inhibitory constant (Ki) was below 20 nM.

Consider `N#Cc1cccc(-c2ccc(C(NCc3nc4cc(Cl)c(F)cc4[nH]3)C3CCN(C4CCCC4)CC3)cc2)c1` (centres unmarked) [Compound 17B], for which the Ki was in the range of 20 to 50 nM.

For `N#Cc1cccc(-c2ccc(C(CNc3nc4cc(Cl)c(Cl)cc4[nH]3)C3CCN(Cc4ccccc4)CC3)cc2)c1` (centres unmarked) [Compound 28A], the inhibition constant Ki was below 20 nM.

For the compound `N#Cc1cccc(-c2ccc(C(CNc3nc4cc(F)c(F)cc4[nH]3)C3CCN(Cc4ccccc4)CC3)cc2)c1` (centres unmarked) [Compound 28B], the Ki was below 20 nM.

Turning to `N#Cc1cccc(-c2ccc(C(OCc3nc4cc(F)c(Cl)cc4[nH]3)C3CCNCC3)cc2)c1` (centres unmarked) [Compound 33], the inhibition constant Ki is 20 to 50 nM.

As to `N#Cc1cccc(-c2ccc(C(OCc3nc4cc(F)c(Cl)cc4[nH]3)C3CCN(CC4CC4)CC3)cc2)c1` (centres unmarked) [Compound 34A], the Ki fell in the range of 20 to 50 nM.

Consider `N#Cc1cccc(-c2ccc(C(OCc3nc4cc(F)c(Cl)cc4[nH]3)C3CCN(Cc4ccccc4)CC3)cc2)c1` (centres unmarked) [Compound 34B], for which the inhibition constant Ki lay in the range of 20 to 50 nM.

For the compound `N#Cc1cccc(-c2ccc(C(OCc3nc4cc(F)c(Cl)cc4[nH]3)C3CCN(C4CCCC4)CC3)cc2)c1` (centres unmarked) [Compound 34C], the Ki was 20 to 50 nM.

As for `N#Cc1cccc(-c2ccc(C(OCc3nc4cc(F)c(Cl)cc4[nH]3)C3CCN(CCCCCO)CC3)cc2)c1` (centres unmarked) [Compound 34D], the inhibition constant Ki was above 100 nM.

For `CS(=O)(=O)N1CCC(C(OCc2nc3cc(Cl)c(Cl)cc3[nH]2)c2ccc(-c3cccc(C#N)c3)cc2)CC1` (centres unmarked) [Compound 39], the inhibitory constant (Ki) is above 100 nM.

As for `CC(=O)N1CCC(C(OCc2nc3cc(Cl)c(Cl)cc3[nH]2)c2ccc(-c3cccc(C#N)c3)cc2)CC1` (centres unmarked) [Compound 44], the Ki is above 100 nM.

Turning to `N#Cc1cccc(-c2ccc(C(CSc3nc4cc(F)c(Cl)cc4[nH]3)C3CCNCC3)cc2)c1` (centres unmarked) [Compound 48], the inhibition constant (Ki) is above 100 nM.

With `CC(C)(C)OC(=O)N1CCC(COc2nc3cc(Cl)c(Cl)cc3[nH]2)(c2ccc(-c3cccc(C#N)c3)cc2)CC1` [Compound 53, 4-(3′-cyano-biphenyl-4-yl)-4-(5,6-dichloro-1H-benzoimidazol-2-yloxymethyl)-piperidine-1-carboxylic acid tert-butyl ester], the Ki was above 100 nM.

Regarding `N#Cc1cccc(-c2ccc(C3(COc4nc5cc(Cl)c(Cl)cc5[nH]4)CCNCC3)cc2)c1` [Compound 54, 4′-[4-(5,6-Dichloro-1H-benzoimidazol-2-yloxymethyl)-piperidin-4-yl]-biphenyl-3-carbonitrile], the Ki fell in the range of 50 to 100 nM.

Take `CS(=O)(=O)N1CCC(COc2nc3cc(Cl)c(Cl)cc3[nH]2)(c2ccc(-c3cccc(C#N)c3)cc2)CC1` [Compound 56, 4′-[4-(5,6-Dichloro-1H-benzoimidazol-2-yloxymethyl)-1-methanesulfonyl-piperidin-4-yl]-biphenyl-3-carbonitrile]: the inhibition constant (Ki) is above 100 nM.

For the compound `N#Cc1cccc(-c2ccc(C3(COc4nc5cc(Cl)c(Cl)cc5[nH]4)CCN(CC4CC4)CC3)cc2)c1` [Compound 57, 4′-[1-Cyclopropylmethyl-4-(5,6-dichloro-1H-benzoimidazol-2-yloxymethyl)-piperidin-4-yl]-biphenyl-3-carbonitrile], the Ki fell in the range of 50 to 100 nM.

Regarding `CCNC(=O)N1CCC(COc2nc3cc(Cl)c(Cl)cc3[nH]2)(c2ccc(-c3cccc(C#N)c3)cc2)CC1` [Compound 58, 4-(3′-Cyano-biphenyl-4-yl)-4-(5,6-dichloro-1H-benzoimidazol-2-yloxymethyl)-piperidine-1-carboxylic acid ethylamide], the Ki was above 100 nM.

`CC(C)(C)OC(=O)N1CCC(OCc2nc3cc(F)c(F)cc3[nH]2)(c2ccc(-c3cccc(C#N)c3)cc2)CC1` [Compound 63, 4-(3′-Cyano-biphenyl-4-yl)-4-(5,6-difluoro-1H-benzoimidazol-2-ylmethoxy)-piperidine-1-carboxylic acid tert-butyl ester]: the inhibitory constant (Ki) is above 100 nM.

Consider `N#Cc1cccc(-c2ccc(C3(NCc4nc5cc(Cl)c(Cl)cc5[nH]4)CCN(C4CCCC4)CC3)cc2)c1` [Compound 67A, 4′-{1-Cyclopentyl-4-[(5,6-dichloro-1H-benzoimidazol-2-ylmethyl)-amino]-piperidin-4-yl}-biphenyl-3-carbonitrile], for which the Ki was above 100 nM.

Regarding `N#Cc1cccc(-c2ccc(C3(NCc4nc5ccccc5[nH]4)CCN(C4CCCC4)CC3)cc2)c1` [Compound 67B], the inhibitory constant (Ki) is above 100 nM.

In the case of `N#Cc1cccc(-c2ccc(C(CCc3nc4cc(Cl)c(Cl)cc4[nH]3)C3CCN(Cc4ccccc4)CC3)cc2)c1` (centres unmarked) [Compound 75A], the Ki lay within 50 to 100 nM.

As to `N#Cc1cccc(-c2ccc(C(CCc3nc4cc(Cl)c(F)cc4[nH]3)C3CCN(Cc4ccccc4)CC3)cc2)c1` (centres unmarked) [Compound 75B], the Ki lay within 20 to 50 nM.

With `N#Cc1cccc(-c2ccc(C(CCc3nc4c(Cl)cc(Cl)cc4[nH]3)C3CCN(Cc4ccccc4)CC3)cc2)c1` (centres unmarked) [Compound 75C], the inhibition constant (Ki) lay within 20 to 50 nM.

The same test, now with this note: [125I]-MCH displacement, CHO cell membranes; read-out: Ki value.
As to `N#Cc1cccc(-c2ccc(C(CNc3nc4cc(Cl)c(Cl)cc4[nH]3)C3CCN(Cc4ccccc4)CC3)cc2)c1` (centres unmarked) [Compound 28A], the inhibition constant Ki was 3 nM.
